Patent US20180368410A1, “MICROBIOCIDAL OXADIAZOLE DERIVATIVES” (SYNGENTA PARTICIPATIONS AG, priority 2015, published 2018)

How the values were obtained:
[1] = system: Puccinia recondita f. Sp. Tritici; assay: Puccinia recondita f. sp. tritici / wheat / leaf disc preventative (brown rust); type: in vivo, Puccinia recondita f. sp. tritici on wheat cv. Kanzler; settings: foliar, 200 ppm in the applied formulation, inoculated 1 day after application, assessed 7 to 9 days after application, vs untreated control leaf disks, read-out: disease control
Procedure: Leaf disks or leaf segments of various plant species are cut from plants grown in a greenhouse. The cut leaf disks or segments are placed in multiwell plates (24-well format) onto water agar. The leaf disks are sprayed with a test solution before (preventative) or after (curative) inoculation. Compounds to be tested are prepared as DMSO solutions (max. 10 mg/ml) which are diluted to the appropriate concentration with 0.025% Tween20 just before spraying. The inoculated leaf disks or segments are incubated under defined conditions (temperature, relative humidity, light, etc.) according to the respective test system. A single evaluation of disease level is carried out 3 to 14 days after inoculation, depending on the pathosystem. Percent disease control relative to the untreated check leaf disks or segments is then calculated. Wheat leaf segments cv. Kanzler were placed on agar in multiwell plates (24-well format) and sprayed with the formulated test compound diluted in water. The leaf disks were inoculated with a spore suspension of the fungus 1 day after application. The inoculated leaf segments were incubated at 19′C and 75% relative humidity (rh) under a light regime of 12 hours light/12 hours darkness in a climate cabinet and the activity of a compound was assessed as percent disease control compared to untreated when an appropriate level of disease damage appears in untreated check leaf segments (7 to 9 days after application). The following compounds at 200 ppm in the applied formulation give at least 80% disease control in this test when compared to untreated control leaf disks under the same conditions, which show extensive disease development.

[2] = system: Puccinia recondita f. Sp. Triticil; assay: Puccinia recondita f. sp. tritici / wheat / leaf disc curative (brown rust); type: in vivo, Puccinia recondita f. sp. tritici on wheat cv. Kanzler; settings: foliar, 200 ppm in the applied formulation, applied 1 day after inoculation, assessed 6 to 8 days after application, vs untreated control leaf disks, read-out: disease control
Procedure: (§1) Leaf disks or leaf segments of various plant species are cut from plants grown in a greenhouse. The cut leaf disks or segments are placed in multiwell plates (24-well format) onto water agar. The leaf disks are sprayed with a test solution before (preventative) or after (curative) inoculation. Compounds to be tested are prepared as DMSO solutions (max. 10 mg/ml) which are diluted to the appropriate concentration with 0.025% Tween20 just before spraying. The inoculated leaf disks or segments are incubated under defined conditions (temperature, relative humidity, light, etc.) according to the respective test system. A single evaluation of disease level is carried out 3 to 14 days after inoculation, depending on the pathosystem. Percent disease control relative to the untreated check leaf disks or segments is then calculated.
Wheat leaf segments cv. Kanzler are placed on agar in multiwell plates (24-well format). The leaf segments are then inoculated with a spore suspension of the fungus. Plates were stored in darkness at 19° C. and 75% relative humidity. The formulated test compound diluted in water was applied 1 day after inoculation. The leaf segments were incubated at 19° C. and 75% relative humidity under a light regime of 12 hours light/12 hours darkness in a climate cabinet and the activity of a compound was assessed as percent disease control compared to untreated when an appropriate level of disease damage appears in untreated check leaf segments (6 to 8 days after application).
(§2) The following compounds at 200 ppm in the applied formulation give at least 80% disease control in this test when compared to untreated control leaf disks under the same conditions, which show extensive disease development.

[3] = system: Phakopsora pachyrhizi; assay: Phakopsora pachyrhizi / soybean / leaf disc preventative (Asian soybean rust); type: in vivo, Phakopsora pachyrhizi on soybean; settings: foliar, 200 ppm in the applied formulation, inoculated one day after application, assessed 12 to 14 days after application, vs untreated control leaf disks, read-out: disease control
Procedure: as §1
Soybean leaf disks are placed on water agar in multiwell plates (24-well format) and sprayed with the formulated test compound diluted in water. One day after application leaf discs are inoculated by spraying a spore suspension on the lower leaf surface. After an incubation period in a climate cabinet of 24-36 hours in darkness at 20° C. and 75% rh leaf disc are kept at 20° C. with 12 h light/day and 75% rh. The activity of a compound is assessed as percent disease control compared to untreated when an appropriate level of disease damage appears in untreated check leaf disks (12 to 14 days after application).
as §2

[4] = system: Glomerella Lacenarium (Colletotrichum lacenarium); assay: Glomerella lagenarium (Colletotrichum lagenarium) liquid culture / cucumber / preventative (anthracnose); type: cell-based; settings: 20 ppm in the applied formulation, liquid culture in PDB, 24° C., inhibition of growth measured photometrically 3 to 4 days after application, vs untreated control, read-out: disease control
Procedure: Mycelia fragments or conidia suspensions of a fungus prepared either freshly from liquid cultures of the fungus or from cryogenic storage, are directly mixed into nutrient broth. DMSO solutions of the test compound (max. 10 mg/ml) are diluted with 0.025% Tween20 by a factor of 50 and 10 μl of this solution is pipetted into a microtiter plate (96-well format). The nutrient broth containing the fungal spores/mycelia fragments is then added to give an end concentration of the tested compound. The test plates are incubated in the dark at 24° C. and 96% relative humidity. The inhibition of fungal growth is determined photometrically after 2 to 7 days, depending on the pathosystem, and percent antifungal activity relative to the untreated check is calculated.
Conidia of the fungus from cryogenic storage are directly mixed into nutrient broth (PDB—potato dextrose broth). After placing a (DMSO) solution of test compound into a microtiter plate (96-well format), the nutrient broth containing the fungal spores is added. The test plates are incubated at 24° C. and the inhibition of growth is measured photometrically 3 to 4 days after application.
The following compounds at 20 ppm in the applied formulation give at least 80% disease control in this test when compared to untreated control under the same conditions, which show extensive disease development.

CC1(C(=O)NCc2ccc(-c3noc(C(F)(F)F)n3)cc2)COC1 [Compound 1.54, 3-methyl-N-[[4-[5-(trifluoromethyl)-1,2,4-oxadiazol-3-yl]phenyl]methyl] oxetane-3-carboxamide]
≥ 80%: pest or weed control at 200 ppm [1] | pest or weed control at 200 ppm [2] | pest or weed control at 200 ppm [3] | inhibition of growth at 20 ppm [4]

O=C(NCCc1ccc(-c2noc(C(F)(F)F)n2)cc1)C1CCOC1 (centres unmarked) [Compound 1.100, N-[2-[4-[5-(trifluoromethyl)-1,2,4-oxadiazol-3-yl]phenyl]ethyl] tetrahydrofuran-3-carboxamide]
≥ 80%: pest or weed control at 200 ppm [1] | pest or weed control at 200 ppm [2] | pest or weed control at 200 ppm [3] | inhibition of growth at 20 ppm [4]

O=C(CC1CC1)NCCc1ccc(-c2noc(C(F)(F)F)n2)cc1 [Compound 1.105, 2-cyclopropyl-N-[2-[4-[5-(trifluoromethyl)-1,2,4-oxadiazol-3-yl]phenyl]ethyl]acetamide]
≥ 80%: pest or weed control at 200 ppm [1] | pest or weed control at 200 ppm [2] | pest or weed control at 200 ppm [3] | inhibition of growth at 20 ppm [4]

CC1(C(=O)NCc2ccc(-c3noc(C(F)(F)F)n3)cc2)CC1 [Compound 1.25, 1-methyl-N-[[4-[5-(trifluoromethyl)-1,2,4-oxadiazol-3-yl]phenyl]methyl] cyclopropanecarboxamide]
≥ 80%: pest or weed control at 200 ppm [1] | pest or weed control at 200 ppm [2] | pest or weed control at 200 ppm [3] | inhibition of growth at 20 ppm [4]

CC1CC1C(=O)NCc1ccc(-c2noc(C(F)(F)F)n2)cc1F (centres unmarked) [Compound 1.66, N-[[2-fluoro-4-[5-(trifluoromethyl)-1,2,4-oxadiazol-3-yl]phenyl]methyl]-2-methyl-cyclopropanecarboxamide]
≥ 80%: pest or weed control at 200 ppm [1] | pest or weed control at 200 ppm [2] | pest or weed control at 200 ppm [3] | inhibition of growth at 20 ppm [4]

CC1CC1C(=O)NCc1ccc(-c2noc(C(F)(F)F)n2)cc1 (centres unmarked) [Compound 1.24, 2-methyl-N-[[4-[5-(trifluoromethyl)-1,2,4-oxadiazol-3-yl]phenyl]methyl] cyclopropanecarboxamide]
≥ 80%: pest or weed control at 200 ppm [1] | pest or weed control at 200 ppm [2] | pest or weed control at 200 ppm [3] | inhibition of growth at 20 ppm [4]

O=C(NCc1ccc(-c2noc(C(F)(F)F)n2)c(F)c1F)C1CC1(F)F (centres unmarked) [Compound 1.72, N-[[2,3-difluoro-4-[5-(trifluoromethyl)-1,2,4-oxadiazol-3-yl]phenyl]methyl]-2,2-difluoro-cyclopropanecarboxamide]
≥ 80%: pest or weed control at 200 ppm [1] | pest or weed control at 200 ppm [2] | pest or weed control at 200 ppm [3] | inhibition of growth at 20 ppm [4]

CC1(C(=O)NCc2ccc(-c3noc(C(F)(F)F)n3)c(F)c2F)CC1 [Compound 1.78, N-[[2,3-difluoro-4-[5-(trifluoromethyl)-1,2,4-oxadiazol-3-yl]phenyl]methyl]-1-methyl-cyclopropanecarboxamide]
≥ 80%: pest or weed control at 200 ppm [1] | pest or weed control at 200 ppm [2] | pest or weed control at 200 ppm [3] | inhibition of growth at 20 ppm [4]

O=C(NCc1ccc(-c2noc(C(F)(F)F)n2)cc1)C1CCCCC1 [Compound 1.10, N-[[4-[5-(trifluoromethyl)-1,2,4-oxadiazol-3-yl]phenyl]methyl] cyclohexanecarboxamide]
≥ 80%: pest or weed control at 200 ppm [1] | pest or weed control at 200 ppm [3] | inhibition of growth at 20 ppm [4]

O=C(NCc1ccc(-c2noc(C(F)(F)F)n2)cn1)c1ccccc1Cl [Compound 1.44, 2-chloro-N-[[5-[5-(trifluoromethyl)-1,2,4-oxadiazol-3-yl]-2-pyridyl]methyl]benzamide]
≥ 80%: pest or weed control at 200 ppm [1] | pest or weed control at 200 ppm [2] | inhibition of growth at 20 ppm [4]

O=C(NCc1ccc(-c2noc(C(F)(F)F)n2)cn1)C1CC1(F)F (centres unmarked) [Compound 1.86, 2,2-difluoro-N-[[5-[5-(trifluoromethyl)-1,2,4-oxadiazol-3-yl]-2-pyridyl]methyl] cyclopropanecarboxamide]
≥ 80%: pest or weed control at 200 ppm [1] | pest or weed control at 200 ppm [2] | inhibition of growth at 20 ppm [4]

O=C(NCc1ccc(-c2noc(C(F)(F)F)n2)cc1F)C1CCC1 [Compound 1.63, N-[[2-fluoro-4-[5-(trifluoromethyl)-1,2,4-oxadiazol-3-yl]phenyl]methyl] cyclobutanecarboxamide]
≥ 80%: pest or weed control at 200 ppm [1] | pest or weed control at 200 ppm [2] | inhibition of growth at 20 ppm [4]

CC1CC1C(=O)NCc1ccc(-c2noc(C(F)(F)F)n2)c(F)c1F (centres unmarked) [Compound 1.77, N-[[2,3-difluoro-4-[5-(trifluoromethyl)-1,2,4-oxadiazol-3-yl]phenyl]methyl]-2-methyl-cyclopropanecarboxamide]
≥ 80%: pest or weed control at 200 ppm [1] | pest or weed control at 200 ppm [3] | inhibition of growth at 20 ppm [4]

O=C(NCc1ccc(-c2noc(C(F)(F)F)n2)cn1)C1CCCO1 (centres unmarked) [Compound 1.46, N-[[5-[5-(trifluoromethyl)-1,2,4-oxadiazol-3-yl]-2-pyridyl]methyl]tetrahydrofuran-2-carboxamide]
≥ 80%: pest or weed control at 200 ppm [1] | pest or weed control at 200 ppm [2] | inhibition of growth at 20 ppm [4]

CC1CC1C(=O)NCc1ccc(-c2noc(C(F)(F)F)n2)cn1 (centres unmarked) [Compound 1.89, 2-methyl-N-[[5-[5-(trifluoromethyl)-1,2,4-oxadiazol-3-yl]-2-pyridyl]methyl] cyclopropanecarboxamide]
≥ 80%: pest or weed control at 200 ppm [1] | pest or weed control at 200 ppm [2] | inhibition of growth at 20 ppm [4]

O=C(NCc1ccc(-c2noc(C(F)(F)F)n2)c(F)c1)C1CCOC1 (centres unmarked) [Compound 1.68, N-[[3-fluoro-4-[5-(trifluoromethyl)-1,2,4-oxadiazol-3-yl]phenyl]methyl] tetrahydrofuran-3-carboxamide]
≥ 80%: pest or weed control at 200 ppm [1] | pest or weed control at 200 ppm [2] | inhibition of growth at 20 ppm [4]

CC1(C(=O)NCCc2ccc(-c3noc(C(F)(F)F)n3)cc2)CC1 [Compound 1.103, 1-methyl-N-[2-[4-[5-(trifluoromethyl)-1,2,4-oxadiazol-3-yl]phenyl]ethyl] cyclopropanecarboxamide]
≥ 80%: pest or weed control at 200 ppm [1] | pest or weed control at 200 ppm [3] | inhibition of growth at 20 ppm [4]
